Structures can show the parent of a compound that is named as a salt.

This assay concerns the target T1, human TPH1 (Homo sapiens, UniProt P17752).
T1 sequence (P17752 1-444): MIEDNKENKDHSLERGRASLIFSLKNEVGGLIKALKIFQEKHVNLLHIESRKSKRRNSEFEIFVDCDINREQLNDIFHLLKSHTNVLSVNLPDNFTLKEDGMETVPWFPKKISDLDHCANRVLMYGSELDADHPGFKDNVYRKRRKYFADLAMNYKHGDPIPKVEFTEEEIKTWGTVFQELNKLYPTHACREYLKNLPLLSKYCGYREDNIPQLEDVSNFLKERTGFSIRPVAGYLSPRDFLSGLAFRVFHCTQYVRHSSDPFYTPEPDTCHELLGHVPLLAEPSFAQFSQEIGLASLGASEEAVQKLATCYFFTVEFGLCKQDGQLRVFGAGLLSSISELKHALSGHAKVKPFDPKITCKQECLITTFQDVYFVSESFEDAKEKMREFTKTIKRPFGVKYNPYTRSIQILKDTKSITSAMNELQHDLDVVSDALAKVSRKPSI
Description: biochemical. An excerpt:
Biochemical In Vitro Assay Using Fluorescence Readout
To generate the enzyme, full length human TPH1 is cloned into the plasmid pET20b(+) (Novagen) and expressed in E. coli. The bacterial cells are ruptured by sonication on ice and the lysate is cleared by centrifugation. The resulting protein in the pellet is re-extracted and TPH1 is purified from the obtained lysate by affinity chromatography using a pterin cosubstrate analog immobilized to the resin of the column. The protein is further purified by size exclusion chromatography to remove protein aggregates. The activity of TPH1 is determined by using a fluorescence assay. The enzyme activity assay is carried out at 15° C. with atmosphere oxygen for the duration of 60 minutes in a volume of 64 μl. The reaction is carried out in a 0.1 M Tris-HCl buffer, adjusted to pH 7.6, containing 1 mM DTT, 0.2 mg/mL catalase, 100 μM (±)-6-methyl-5,6,7,8-tetrahydropterine dihydrochloride, 40 μM L-tryptophan, and 40-80 nM of TPH1. The reaction is started by bringing together L-tryptophan with all the other reaction substituents and stopped by quenching with perchloric acid (HClO4). The amount of 5-hydroxy-L-tryptophan produced during the enzymatic reaction is determined by fluorescence readout. Fluorescence, as determined at 540 nm when excited at 300 nm wavelength, increases proportionally to the 5-hydroxy-L-tryptophan formed. Compounds are prepared as 10 mM stock solution in DMSO, then diluted in 384-well plates using DMSO followed by a transfer of the dilutions into the assay plate. Fluorescence is measured for each well and the fluorescence at 540 nm wavelength is compared to the fluorescence of the vehicle in place of compound. […] The calculated IC50 values may fluctuate depending on the daily biochemical assay performance. Fluctuations of this kind are known to those skilled in the art.
A word on the IC50: it is the concentration that inhibits the measured activity by half. A high value points to weaker potency in that assay. On to `COc1cc(F)c(C2c3c(nc4cc(C(F)(F)F)ccn34)CCN2C(=O)COc2ccc3c(c2)CN(C)CC3)cc1OC` (stereo not shown) [Example 3.18.5, 1-(1-(2-fluoro-4,5-dimethoxyphenyl)-7-(trifluoromethyl)-3,4-dihydroimidazo[1,2-a:5,4-c′]dipyridin-2(1H)-yl)-2-((2-methyl-1,2,3,4-tetrahydroisoquinolin-7-yl)oxy)ethan-1-one], for which 13 nM corresponded to half-maximal inhibition (IC50).
`CCc1nc(C)ccc1OCC(=O)N1CCc2nc3ccccn3c2C1c1ccc(C2CC2)cc1F` (stereo not shown) [Example 1.5.5, 1-(1-(4-cyclopropyl-2-fluorophenyl)-3,4-dihydroimidazo[1,2-a:5,4-c′]dipyridin-2(1H)-yl)-2-((2-ethyl-6-methylpyridin-3-yl)oxy)ethan-1-one] showed a concentration for half-maximal inhibition (IC50) of 29 nM. Compared with the last compound, the IC50 is about 2.2-fold higher.
Consider `COc1ccc(C2c3c(nc4cc(Cl)ccn34)CCN2C(=O)COc2ccc3ccccc3c2)cc1OC` (stereo not shown) [Example 2.1.1, 1-(7-chloro-1-(3,4-dimethoxyphenyl)-3,4-dihydroimidazo[1,2-a:5,4-c′]dipyridin-2(1H)-yl)-2-(naphthalen-2-yloxy)ethan-1-one hydrochloride], for which inhibition was half-maximal at 39 nM (IC50).
The result for `CCc1cc(C)c(C(N)=O)cc1OCC(=O)N1CCc2nc3ccccn3c2C1c1ccc(OC)c(OC)c1` (stereo not shown) [Example 1.1.11, 5-(2-(1-(3,4-dimethoxyphenyl)-3,4-dihydroimidazo[1,2-a:5,4-c′]dipyridin-2(1H)-yl)-2-oxoethoxy)-4-ethyl-2-methylbenzamide] reads 248 nM.
`Cc1ccc(C2c3c(nc4cc(C(F)(F)F)ccn34)CCN2C(=O)COc2ccc(CN3CCOCC3)cc2Cl)nc1` (stereo not shown) [Example 3.50.2, 2-(2-chloro-4-(morpholinomethyl)phenoxy)-1-(1-(5-methylpyridin-2-yl)-7-(trifluoromethyl)-3,4-dihydroimidazo[1,2-a:5,4-c′]dipyridin-2(1H)-yl)ethan-1-one]: the IC50 turned out to be 100 nM. Compared with the last compound, the IC50 is about 2.5-fold lower.
`COCCOc1ccc(C2c3c(nc4ccccn34)CCN2C(=O)COc2ccc(NS(C)(=O)=O)nc2Cl)c(F)c1` (stereo not shown) [Example 1.21.2, N-(6-chloro-5-(2-(1-(2-fluoro-4-(2-methoxyethoxy)phenyl)-3,4-dihydroimidazo[1,2-a:5,4-c′]dipyridin-2(1H)-yl)-2-oxoethoxy)pyridin-2-yl)methanesulfonamide] showed an IC50 of 79 nM. This IC50 and that of the compound before are within 1.5-fold of each other.
`Cc1cc(C2c3c(nc4cc(C(F)(F)F)ccn34)CCN2C(=O)COc2ccc3ccccc3c2)no1` (stereo not shown) [Example 3.45.1, 1-(1-(5-methylisoxazol-3-yl)-7-(trifluoromethyl)-3,4-dihydroimidazo[1,2-a:5,4-c′]dipyridin-2(1H)-yl)-2-(naphthalen-2-yloxy)ethan-1-one] had a half-maximal inhibitory concentration (IC50) of 349 nM.
The compound `CCc1nc(C)ccc1OCC(=O)N1CCc2nc3ccccn3c2C1c1ccc(Cl)nc1F` (stereo not shown) [Example 1.11.3, 1-(1-(6-chloro-2-fluoropyridin-3-yl)-3,4-dihydroimidazo[1,2-a:5,4-c′]dipyridin-2(1H)-yl)-2-((2-ethyl-6-methylpyridin-3-yl)oxy)ethan-1-one] had a concentration for half-maximal inhibition (IC50) of 241 nM.
Turning to `Cc1cc(Cl)ccc1OCC(=O)N1CCc2nc3ccccn3c2C1c1ccc(Cl)cc1F` (stereo not shown) [Example 1.4.1, 1-(1-(4-chloro-2-fluorophenyl)-3,4-dihydroimidazo[1,2-a:5,4-c′]dipyridin-2(1H)-yl)-2-(4-chloro-2-methylphenoxy)ethan-1-one], the IC50 came to 18 nM.
The compound `COc1ccc(C2c3c(nc4cc(Cl)ccn34)CCN2C(=O)COc2ccc(CN3CCOCC3)nc2Cl)c(F)c1` (stereo not shown) [Example 2.3.2, 1-(7-chloro-1-(2-fluoro-4-methoxyphenyl)-3,4-dihydroimidazo[1,2-a:5,4-c′]dipyridin-2(1H)-yl)-2-((2-chloro-6-(morpholinomethyl)pyridin-3-yl)oxy)ethan-1-one] yielded an IC50 of 59 nM.
Regarding `O=C(COc1ccc2ccccc2c1)N1CCc2nc3cc(C(F)(F)F)ccn3c2C1c1ccc2c(c1)OCO2` (stereo not shown) [Example 3.16.1, 1-(1-(benzo[d][1,3]dioxol-5-yl)-7-(trifluoromethyl)-3,4-dihydroimidazo[1,2-a:5,4-c′]dipyridin-2(1H)-yl)-2-(naphthalen-2-yloxy)ethan-1-one], the IC50 came to 150 nM.
In turn, `O=C(COc1ccc(CN2CCOCC2)cc1Cl)N1CCc2nc3cc(C(F)(F)F)ccn3c2C1c1ccc(Cl)cc1` (stereo not shown) [Example 3.30.2, 2-(2-chloro-4-(morpholinomethyl)phenoxy)-1-(1-(4-chlorophenyl)-7-(trifluoromethyl)-3,4-dihydroimidazo[1,2-a:5,4-c′]dipyridin-2(1H)-yl)ethan-1-one] yielded an IC50 of 20 nM.
For the compound `O=C(COc1ccc2ccccc2c1)N1CCc2nc3cc(C(F)(F)F)ccn3c2C1c1cc(-c2ccccc2)on1` (stereo not shown) [Example 3.46.2, 2-(naphthalen-2-yloxy)-1-(1-(5-phenylisoxazol-3-yl)-7-(trifluoromethyl)-3,4-dihydroimidazo[1,2-a:5,4-c′]dipyridin-2(1H)-yl)ethan-1-one], the IC50 was determined as 206 nM. Compared with the last compound, the IC50 is about 10-fold higher.
The compound `COc1ccc(C2c3c(nc4cc(C(F)(F)F)ccn34)CCN2C(=O)COc2ccc(CN3CCOCC3)cc2Cl)nc1` (stereo not shown) [Example 3.52.2, 2-(2-chloro-4-(morpholinomethyl)phenoxy)-1-(1-(5-methoxypyridin-2-yl)-7-(trifluoromethyl)-3,4-dihydroimidazo[1,2-a:5,4-c′]dipyridin-2(1H)-yl)ethan-1-one] showed an IC50 of 74 nM.
As for `CN(C)C(=O)c1csc(C2c3c(nc4cccnn34)CCN2C(=O)COc2ccc(N3CCOCC3)nc2Cl)c1` (stereo not shown) [Example 16.3.1, 5-(8-(2-((2-Chloro-6-morpholinopyridin-3-yl)oxy)acetyl)-6,7,8,9-tetrahydropyrido[4′,3′:4,5]imidazo[1,2-b]pyridazin-9-yl)-N,N-dimethylthiophene-3-carboxamide], the half-inhibitory concentration (IC50) came to 43 nM.
`COc1ccc(C2c3c(nc4cc(Cl)ccn34)CCN2C(=O)COc2ccc3ccccc3c2)cc1O` (stereo not shown) [Example 2.8.1, 1-(7-chloro-1-(3-hydroxy-4-methoxyphenyl)-3,4-dihydroimidazo[1,2-a:5,4-c′]dipyridin-2(1H)-yl)-2-(naphthalen-2-yloxy)ethan-1-one]: it took 219 nM to reach half-maximal inhibition (IC50).
For `CCc1ncccc1OCC(=O)N1CCc2nc3ccccn3c2C1c1ccc(Cl)nc1F` (stereo not shown) [Example 1.11.2, 1-(1-(6-chloro-2-fluoropyridin-3-yl)-3,4-dihydroimidazo[1,2-a:5,4-c′]dipyridin-2(1H)-yl)-2-((2-ethylpyridin-3-yl)oxy)ethan-1-one] the value was 123 nM; for `O=C(COc1ccc(N2CCOCC2)nc1Cl)N1CCc2nc3cccnn3c2C1c1ccc(C2CC2)cc1F` (stereo not shown) [Example 16.1.2, 2-((2-chloro-6-morpholinopyridin-3-yl)oxy)-1-(9-(4-cyclopropyl-2-fluorophenyl)-6,9-dihydropyrido[4′,3′:4,5]imidazo[1,2-b]pyridazin-8(7H)-yl)ethan-1-one], 8 nM.
For `COc1ccc(C2c3c(nc4ccc(Br)cn34)CCN2C(=O)COc2ccc3ccccc3c2)cc1OC` (stereo not shown) [Example 10.1.1, 1-(8-bromo-1-(3,4-dimethoxyphenyl)-3,4-dihydroimidazo[1,2-a:5,4-c′]dipyridin-2(1H)-yl)-2-(naphthalen-2-yloxy)ethan-1-one] the value was 124 nM; for `O=C(COc1ccc(CN2CCOCC2)cc1Cl)N1CCc2nc3cc(Cl)ccn3c2C1c1cccnc1F` (stereo not shown) [Example 2.2.1, 1-(7-chloro-1-(2-fluoropyridin-3-yl)-3,4-dihydroimidazo[1,2-a:5,4-c′]dipyridin-2(1H)-yl)-2-(2-chloro-4-(morpholinomethyl)phenoxy)ethan-1-one], 269 nM.
Take `Cc1c(CN2CCOCC2)ccc(OCC(=O)N2CCc3nc4cc(C(F)(F)F)ccn4c3C2c2cnn(-c3ccccc3)c2)c1C` (stereo not shown) [Example 3.41.3, 2-(2,3-dimethyl-4-(morpholinomethyl)phenoxy)-1-(1-(1-phenyl-1H-pyrazol-4-yl)-7-(trifluoromethyl)-3,4-dihydroimidazo[1,2-a:5,4-c′]dipyridin-2(1H)-yl)ethan-1-one]: half-maximal inhibition (IC50) required 68 nM.
As to `COc1ccc(C2c3c(nc4ccc(Cl)cn34)CCN2C(=O)COc2ccc3ccccc3c2)cc1OC` (stereo not shown) [Example 9.1.1, 1-(8-chloro-1-(3,4-dimethoxyphenyl)-3,4-dihydroimidazo[1,2-a:5,4-c′]dipyridin-2(1H)-yl)-2-(naphthalen-2-yloxy)ethan-1-one], the half-maximal inhibitory concentration (IC50) came to 145 nM.

For the origin of these results see patent US20180155344A1, “TRICYCLIC PIPERIDINE COMPOUNDS” (ACTELION PHARMACEUTICALS LTD, priority 2015, published 2018).
